Test results published in ChEMBL document CHEMBL1136310, “Pyrazino[1,2-a]indole-1,4-diones, simple analogues of gliotoxin, as selective inhibitors of geranylgeranyltransferase I” (Bioorg Med Chem Lett, 2003).

What was measured:
[1] = target: Geranylgeranyl transferase type I (Homo sapiens, UniProt P49354+P53609); assay: Inhibition of [3H]-GGPP incorporation into recombinant human Ha-Ras-CVLL by Geranylgeranyl transferase type I; assay type: protein-complex assay
[2] = target: Protein farnesyltransferase (Homo sapiens, UniProt P49354+P49356); assay: Inhibition of [3H]FPP incorporation into recombinant human Ha-Ras-CVLS by farnesyl transferase; assay type: protein-complex assay

Row | IC50 [1] [µM] | IC50 [2] [µM] | Structure (SMILES)
1 | > 100 | > 100 | CN1C(=O)c2cc3ccccc3n2C(=O)C1SSCc1ccccc1 (stereo unspecified)
2 | > 100 | > 100 | COc1cccc2c1CC1C(=O)N(C)CC(=O)N21 (stereo unspecified)
3 | > 100 | > 100 | CN1CC(=O)N2c3ccccc3CC2C1=O (stereo unspecified)
4 | > 100 | > 100 | CN1CC(=O)n2c(cc3ccccc32)C1=O
5 | > 100 | > 100 | COc1cccc2c1cc1n2C(=O)CN(C)C1=O
6 | 90.3 | 748 | COc1cccc2c1cc1n2C(=O)C(SC(C)=O)N(C)C1=O (stereo unspecified)
7 | > 100 | > 100 | COc1cccc2c1cc1n2C(=O)C(SSCc2ccccc2)N(C)C1=O (stereo unspecified)

Row | Structure (SMILES) | IC50 [1] [µM] | IC50 [2] [µM]
8 | CN1C(=O)[C@]23CC4=CC=C[C@H](O)[C@H]4N2C(=O)[C@@]1(CO)SS3 [GLIOTOXIN] | 17 | 80
